Data as given in patent US10815200B2, “18F—tagged inhibitors of prostate specific membrane antigen (PSMA) and their use as imaging agents for prostate cancer” (DEUTSCHES KREBSFORSCHUNGSZENTRUM, priority 2015, dated 2020).
pIC50: −log10 of the molar value. Square brackets hold non-standard residues; d marks the D form. Peptide text beside a SMILES is read from it. * marks the point of attachment. X1 = O=C(O)CCC(NC(=O)NC(CCCCN*)C(=O)O)C(=O)O; 2Nal = N[CH](Cc1ccc2ccccc2c1)C(=O)O; Nicotinoyl(6-F) = O=C(c1ccc(F)nc1)*; 4Amb = NCc1ccc(C(=O)O)cc1

Key:
PSMA = target: T1, PSMA (Homo sapiens, UniProt Q04609); experiment: Competitive cell binding assay (binding affinity) on LNCaP cells against 68Ga-labeled [Glu-urea-Lys(Ahx)]2-HBED-CC; conditions: competition with 68Ga-labeled [Glu-urea-Lys(Ahx)]2-HBED-CC, non-radioactive reference compounds
T1 construct: host or cells: LNCaP cells
T1 sequence (Q04609 whole entry): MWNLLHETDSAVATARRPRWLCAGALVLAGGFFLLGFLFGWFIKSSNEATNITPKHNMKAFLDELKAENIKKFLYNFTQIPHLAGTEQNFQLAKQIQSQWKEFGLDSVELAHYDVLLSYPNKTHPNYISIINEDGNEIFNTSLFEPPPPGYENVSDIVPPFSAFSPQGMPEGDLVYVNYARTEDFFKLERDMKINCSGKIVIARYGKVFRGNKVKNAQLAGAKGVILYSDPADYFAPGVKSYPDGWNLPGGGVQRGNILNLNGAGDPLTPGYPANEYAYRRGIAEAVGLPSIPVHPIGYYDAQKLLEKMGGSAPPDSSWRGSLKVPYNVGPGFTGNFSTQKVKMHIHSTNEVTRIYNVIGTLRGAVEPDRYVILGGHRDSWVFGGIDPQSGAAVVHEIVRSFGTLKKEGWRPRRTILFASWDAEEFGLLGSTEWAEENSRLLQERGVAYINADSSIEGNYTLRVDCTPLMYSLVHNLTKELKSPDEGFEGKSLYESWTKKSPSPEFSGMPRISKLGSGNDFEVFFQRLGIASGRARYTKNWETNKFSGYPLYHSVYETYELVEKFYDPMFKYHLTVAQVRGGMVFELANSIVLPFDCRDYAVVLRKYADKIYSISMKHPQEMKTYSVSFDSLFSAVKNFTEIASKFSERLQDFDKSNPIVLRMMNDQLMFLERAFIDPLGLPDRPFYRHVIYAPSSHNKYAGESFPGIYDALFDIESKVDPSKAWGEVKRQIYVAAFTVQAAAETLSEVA
Protocol: For binding studies and in vivo experiments LNCaP cells (metastatic lesion of human prostatic adenocarcinoma, ATCC CRL-1740) were cultured in RPMI medium supplemented with 10% fetal calf serum and Glutamax (PAA, Austria). During cell culture, cells were grown at 37° C. in an incubator with humidified air, equilibrated with 5% CO2. The cells were harvested using trypsin-ethylenediaminetetraacetic acid (trypsin-1.5 EDTA; 0.25% trypsin, 0.02% EDTA, all from PAA, Austria) and washed with PBS.
The competitive cell binding assay and internalization experiments were performed as described previously (Eder et al. Bioconjugate Chem. 2012, 23 (4), 688-697). Briefly, the respective cells (10^5 per well) were incubated with the radioligand (^68Ga-labeled [Glu-urea-Lys(Ahx)]2-HBED-CC (Schafer et al. EJNMMI Research 2012, 2:23 doi:10.1186/2191-219X-2-23))) in the presence of 12 different concentrations of analyte (0-5000 nM, 100 μL/well). After incubation, washing was carried out using a multiscreen vacuum manifold (Millipore, Billerica, Mass.). Cell-bound radioactivity was measured using a gamma counter (Packard Cobra II, GMI, Minnesota, USA). The 50% inhibitory concentration (IC50) was calculated by fitting the data using a nonlinear regression algorithm (GraphPad Software). Experiments were performed three times. Reference is made to Table A below.

LNCaP cells = experiment: Specific cell uptake and internalization in LNCaP cells; assay type: cell-based, human; conditions: for Cell surface / Internalised: 30 nM radiolabeled compound, 45 min, 37° C., specific (PMPA block); for Internalized fraction: (Internalized activity/total activity)*100
Protocol: During cell culture, cells were grown at 37° C. in an incubator with humidified air, equilibrated with 5% CO2. […] To determine the specific cell uptake and internalization, 10^5 cells were seeded in poly-L-lysine coated 24-well cell culture plates 24 h before incubation. After washing, the cells were incubated with 30 nM of the radiolabeled compounds for 45 min at 37° C. […] Cellular uptake was terminated by washing 3 times with 1 mL of ice-cold PBS. […] The cells were washed with 1 mL of ice-cold PBS and lysed using 0.3 N NaOH (0.5 mL). The surface-bound and the internalized fractions were measured in a gamma counter. The cell uptake was calculated as percent of the initially added radioactivity bound to 10^5 cells [% ID/10^5 cells].

| Compound | pIC50 (PSMA) | Cell surface (LNCaP cells) [% ID/10^5 cells] | Internalised (LNCaP cells) [% ID/10^5 cells] | Internalized fraction (LNCaP cells) [%] |
| --- | --- | --- | --- | --- |
| O=C(O)CCC(NC(=O)NC(CCCCNC(=O)C(Cc1ccc2ccccc2c1)NC(=O)c1ccc(CNC(=O)C(CCC(=O)O)NC(=O)C(CCC(=O)O)NC(=O)c2ccc(F)nc2)cc1)C(=O)O)C(=O)O (stereo not shown) [PSMA-1007, (Glu)-(Urea)-(Lys)-(2-Nal)-(Bn)-(Glu)-(Glu)-FN] | 8.30 |  |  |  |
| O=C(O)CC[C@@H](NC(=O)N[C@H](CCCCNC(=O)[C@@H](Cc1ccc2ccccc2c1)NC(=O)[C@@H](CCC(=O)O)NC(=O)[C@@H](CCC(=O)O)NC(=O)c1ccnc(F)c1)C(=O)O)C(=O)O [PSMA-1011, (Glu)-(Urea)-(Lys)-(2-Naphthylalanine)-(Glu)-(Glu)-FN] | 8.15 |  |  |  |
| O=C(O)CC[C@@H](NC(=O)N[C@H](CCCCNC(=O)[C@@H](Cc1ccc2ccccc2c1)NC(=O)[C@@H](CCC(=O)O)NC(=O)[C@@H](CCC(=O)O)NC(=O)c1ccnc([18F])c1)C(=O)O)C(=O)O [PSMA-1011, (Glu)-(Urea)-(Lys)-(2-Naphthylalanine)-(Glu)-(Glu)-FN] |  | 4.1 | 0.7 | 15 |
| O=C(O)CC[C@H](NC(=O)N[C@@H](CCCCNC(=O)[C@@H](Cc1ccc2ccccc2c1)NC(=O)CC[C@@H](NC(=O)[C@@H](CCC(=O)O)NC(=O)c1ccnc(F)c1)C(=O)O)C(=O)O)C(=O)O [PSMA-1012, (Glu)-(Urea)-(Lys)-(2-Naphthylalanine)-(γGlu)-(Glu)-FN] | 8.15 |  |  |  |
| O=C(O)CC[C@H](NC(=O)N[C@@H](CCCCNC(=O)[C@@H](Cc1ccc2ccccc2c1)NC(=O)CC[C@@H](NC(=O)[C@@H](CCC(=O)O)NC(=O)c1ccnc([18F])c1)C(=O)O)C(=O)O)C(=O)O [PSMA-1012, (Glu)-(Urea)-(Lys)-(2-Naphthylalanine)-(γGlu)-(Glu)-FN] |  | 6.9 | 2.7 | 28 |
| O=C(O)CC[C@@H](NC(=O)N[C@H](CCCCNC(=O)[C@@H](Cc1ccc2ccccc2c1)NC(=O)c1ccc(CNC(=O)[C@@H](CCC(=O)O)NC(=O)c2ccnc(F)c2)cc1)C(=O)O)C(=O)O [PSMA-1015, (Glu)-(Urea)-(Lys)-(2-Nal)-(Bn)-(Glu)-FN] | 8.40 |  |  |  |
| O=C(O)CC[C@@H](NC(=O)N[C@H](CCCCNC(=O)[C@@H](Cc1ccc2ccccc2c1)NC(=O)c1ccc(CNC(=O)[C@@H](CCC(=O)O)NC(=O)c2ccnc([18F])c2)cc1)C(=O)O)C(=O)O [PSMA-1015, (Glu)-(Urea)-(Lys)-(2-Nal)-(Bn)-(Glu)-FN] |  | 14.3 | 6.0 | 30 |
| O=C(O)CCC(NC(=O)NC(CCCCNC(=O)C(Cc1ccc2ccccc2c1)NC(=O)c1ccc(CNC(=O)C(CCC(=O)O)NC(=O)C(CCC(=O)O)NC(=O)C(CCC(=O)O)NC(=O)c2ccc([18F])nc2)cc1)C(=O)O)C(=O)O (stereo not shown) [PSMA-1018, (Glu)-(Urea)-(Lys)-(2-Nal)-(Bn)-(Glu)-(Glu)-(Glu)-FN] |  | 1.1 | 0.9 | 45 |
| O=C(O)CCC(NC(=O)NC(CCCCNC(=O)C(Cc1ccc2ccccc2c1)NC(=O)c1ccc(CNC(=O)C(CCC(=O)O)NC(=O)C(CCC(=O)O)NC(=O)C(CCC(=O)O)NC(=O)c2ccc(F)nc2)cc1)C(=O)O)C(=O)O (stereo not shown) [PSMA-1018, (Glu)-(Urea)-(Lys)-(2-Nal)-(Bn)-(Glu)-(Glu)-(Glu)-FN] ({Nicotinoyl(6-F)}-EEE[4Amb][2Nal]-X1; configuration not given here) | 7.85 |  |  |  |
| O=C(O)CCC(NC(=O)NC(CCCCNC(=O)C(Cc1ccc2ccccc2c1)NC(=O)C1CCC(CNC(=O)C(CCC(=O)O)NC(=O)C(CCC(=O)O)NC(=O)c2ccc(F)nc2)CC1)C(=O)O)C(=O)O (stereo not shown) [PSMA-1019, (Glu)-(Urea)-(Lys)-(2-Nal)-(Chx)-(Glu)-(Glu)-FN] | 7.92 |  |  |  |
| O=C(O)CCC(NC(=O)NC(CCCCNC(=O)C(Cc1ccc2ccccc2c1)NC(=O)C1CCC(CNC(=O)C(CCC(=O)O)NC(=O)C(CCC(=O)O)NC(=O)c2ccc([18F])nc2)CC1)C(=O)O)C(=O)O (stereo not shown) [PSMA-1019, (Glu)-(Urea)-(Lys)-(2-Nal)-(Chx)-(Glu)-(Glu)-FN] |  | 5.5 | 1.9 | 26 |
| O=C(O)CCC(NC(=O)NC(CCCCNC(=O)C(Cc1ccc2ccccc2c1)NC(=O)CCC(NC(=O)C(CCC(=O)O)NC(=O)C(CCC(=O)O)NC(=O)c1ccc(F)nc1)C(=O)O)C(=O)O)C(=O)O (stereo not shown) [PSMA-1020, (Glu)-(Urea)-(Lys)-(2-Nal)-(γGlu)-(Glu)-(Glu)-FN] | 8.05 |  |  |  |
| O=C(O)CCC(NC(=O)NC(CCCCNC(=O)C(Cc1ccc2ccccc2c1)NC(=O)CCC(NC(=O)C(CCC(=O)O)NC(=O)C(CCC(=O)O)NC(=O)c1ccc([18F])nc1)C(=O)O)C(=O)O)C(=O)O (stereo not shown) [PSMA-1020, (Glu)-(Urea)-(Lys)-(2-Nal)-(γGlu)-(Glu)-(Glu)-FN] |  | 6.8 | 1.5 | 18 |
| O=C(O)CCC(NC(=O)NC(CCCCNC(=O)C(Cc1ccc2ccccc2c1)NC(=O)CCC(NC(=O)CCC(NC(=O)c1ccc(F)nc1)C(=O)O)C(=O)O)C(=O)O)C(=O)O (stereo not shown) [PSMA-1022, (Glu)-(Urea)-(Lys)-(2-Nal)-(γGlu)-(γGlu)-FN] | 8.10 |  |  |  |
| O=C(O)CCC(NC(=O)NC(CCCCNC(=O)C(Cc1ccc2ccccc2c1)NC(=O)CCC(NC(=O)CCC(NC(=O)c1ccc([18F])nc1)C(=O)O)C(=O)O)C(=O)O)C(=O)O (stereo not shown) [PSMA-1022, (Glu)-(Urea)-(Lys)-(2-Nal)-(γGlu)-(γGlu)-FN] |  | 3.5 | 1.0 | 22 |
| O=C(O)CCC(NC(=O)NC(CCCCNC(=O)C(Cc1ccc2ccccc2c1)NC(=O)c1ccc(CNC(=O)C(CCC(=O)O)NC(=O)C(CCC(=O)O)NC(=O)c2ccc(F)nc2)cc1)C(=O)O)C(=O)O [PSMA-1023, (Glu)-(Urea)-(Lys)-(2-Nal)-(Bn)-(D-Glu)-(D-Glu)-FN] | 8.10 |  |  |  |
| O=C(O)CCC(NC(=O)NC(CCCCNC(=O)C(Cc1ccc2ccccc2c1)NC(=O)c1ccc(CNC(=O)C(CCC(=O)O)NC(=O)C(CCC(=O)O)NC(=O)c2ccc([18F])nc2)cc1)C(=O)O)C(=O)O [PSMA-1023, (Glu)-(Urea)-(Lys)-(2-Nal)-(Bn)-(D-Glu)-(D-Glu)-FN] |  | 6.5 | 3.2 | 33 |
| O=C(O)CCC(NC(=O)NC(CCCCNC(=O)C(Cc1ccc2ccccc2c1)NC(=O)c1ccc(CNC(=O)C(CCC(=O)O)NC(=O)C(CCC(=O)O)NC(=O)c2ccc(F)nc2)cc1)C(=O)O)C(=O)O [PSMA-1024, (Glu)-(Urea)-(Lys)-(2-Nal)-(Bn)-(D-Glu)-(Glu)-FN] | 8.10 |  |  |  |
| O=C(O)CCC(NC(=O)NC(CCCCNC(=O)C(Cc1ccc2ccccc2c1)NC(=O)c1ccc(CNC(=O)C(CCC(=O)O)NC(=O)C(CCC(=O)O)NC(=O)c2ccc([18F])nc2)cc1)C(=O)O)C(=O)O [PSMA-1024, (Glu)-(Urea)-(Lys)-(2-Nal)-(Bn)-(D-Glu)-(Glu)-FN] |  | 5.3 | 2.1 | 28 |
| O=C(O)CCC(NC(=O)NC(CCCCNC(=O)C(Cc1ccc2ccccc2c1)NC(=O)c1ccc(CNC(=O)C(CNC(=O)c2ccc(F)nc2)S(=O)(=O)O)cc1)C(=O)O)C(=O)O (stereo not shown) [PSMA-1026, (Glu)-(Urea)-(Lys)-(2-Nal)-(Bn)-(Sala)-FN] | 7.85 |  |  |  |
| O=C(O)CCC(NC(=O)NC(CCCCNC(=O)C(Cc1ccc2ccccc2c1)NC(=O)c1ccc(CNC(=O)C(CNC(=O)c2ccc([18F])nc2)S(=O)(=O)O)cc1)C(=O)O)C(=O)O (stereo not shown) [PSMA-1026, (Glu)-(Urea)-(Lys)-(2-Nal)-(Bn)-(Sala)-FN] |  | 1.3 | 1.3 | 50 |
| O=C(O)CCC(NC(=O)NC(CCCCNC(=O)C(Cc1ccc2ccccc2c1)NC(=O)c1ccc(CNC(=O)C(CNC(=O)C(CNC(=O)c2ccc(F)nc2)S(=O)(=O)O)S(=O)(=O)O)cc1)C(=O)O)C(=O)O (stereo not shown) [PSMA-1027, (Glu)-(Urea)-(Lys)-(2-Nal)-(Bn)-(Sala)-(Sala)-FN] | 8.15 |  |  |  |
| O=C(O)CCC(NC(=O)NC(CCCCNC(=O)C(Cc1ccc2ccccc2c1)NC(=O)c1ccc(CNC(=O)C(CNC(=O)C(CNC(=O)c2ccc([18F])nc2)S(=O)(=O)O)S(=O)(=O)O)cc1)C(=O)O)C(=O)O (stereo not shown) [PSMA-1027, (Glu)-(Urea)-(Lys)-(2-Nal)-(Bn)-(Sala)-(Sala)-FN] |  | 0.9 | 1.4 | 60 |
| (Glu)-(Urea)-(Lys)-(2-Nal)-(Bn)-(Gla)-FN [PSMA-1025] | 8.05 | 4.3 | 3.1 | 42 |
